Test results published in US10406207B2, “Peptide conjugates of GLP-1 receptor agonists and gastrin and their use” (priority 2010, dated 2019).
Where two headings read alike, the source gives them in different places.

Legend:
Type in all cases: cell-based
human CCK-B R = target: T1, human CCK-B R (Homo sapiens, UniProt P32239); experiment: Human CCK-B receptor efficacy assay (AlphaScreen SureFire p-ERK); conditions: Table 1; HEK293 cells expressing human CCK-B R, p-ERK; read-out: hCCK-B R EC50
T1 construct: expressed in transfected cells
T1 sequence (P32239 1-447): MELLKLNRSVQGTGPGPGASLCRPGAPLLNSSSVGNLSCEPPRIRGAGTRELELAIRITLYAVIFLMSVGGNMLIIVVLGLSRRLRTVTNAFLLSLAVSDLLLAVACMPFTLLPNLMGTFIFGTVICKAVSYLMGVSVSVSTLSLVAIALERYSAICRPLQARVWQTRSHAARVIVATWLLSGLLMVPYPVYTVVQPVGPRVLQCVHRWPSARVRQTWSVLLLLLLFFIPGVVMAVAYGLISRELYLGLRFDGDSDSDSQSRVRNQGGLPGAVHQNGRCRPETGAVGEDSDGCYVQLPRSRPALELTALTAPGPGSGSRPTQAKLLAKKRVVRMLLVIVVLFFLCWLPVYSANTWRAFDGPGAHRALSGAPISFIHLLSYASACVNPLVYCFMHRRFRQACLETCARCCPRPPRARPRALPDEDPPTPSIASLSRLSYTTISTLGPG

mouse CCK-B R = target: T2, mouse CCK-B R (Mus musculus, UniProt P56481); experiment: Mouse CCK-B receptor efficacy assay (AlphaScreen SureFire p-ERK); conditions: Table 1; HEK293 cells expressing mouse CCK-B R, p-ERK; read-out: mCCK-B R EC50
T2 construct: expressed in transfected cells
T2 sequence (P56481 1-453): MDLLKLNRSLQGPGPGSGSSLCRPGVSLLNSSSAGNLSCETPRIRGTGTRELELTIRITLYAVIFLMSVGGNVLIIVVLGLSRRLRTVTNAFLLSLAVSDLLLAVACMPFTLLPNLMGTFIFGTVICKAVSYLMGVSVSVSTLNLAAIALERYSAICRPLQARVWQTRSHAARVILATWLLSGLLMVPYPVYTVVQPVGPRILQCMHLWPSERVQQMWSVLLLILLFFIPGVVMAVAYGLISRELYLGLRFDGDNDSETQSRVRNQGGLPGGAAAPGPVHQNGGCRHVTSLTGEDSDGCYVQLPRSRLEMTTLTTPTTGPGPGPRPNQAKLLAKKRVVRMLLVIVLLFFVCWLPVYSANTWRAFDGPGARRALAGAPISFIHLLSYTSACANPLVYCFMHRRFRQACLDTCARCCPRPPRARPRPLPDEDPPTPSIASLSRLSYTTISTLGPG
Excerpt: CCK-B Receptor (CCK-B R) Efficacy Assay:
To test binding and activation of CCK-B R we produced stable cell lines expressing one of the human or mouse CCK receptors in a manner similar to that for production of the hGLP-1 R cell lines were generated (vide supra). In brief, we used HEK293 cells for transfection of the cDNA for human or mouse CCK-A R or CCK-B R [hCCK-A R (gene identity: L19315), hCCK-B R (NM_176875), mCCK-A R (NM_009827) and mCCK-B R (NM_007627)] all cloned into the transfection plasmid pIRESneo2dNGFR. The cells were grown according to standard protocol in growth medium and transfected with the plasmids using Lipofectamin (Invitrogen). The cells stably expressing CCK receptors were selected using G418 in the growth medium (only cells that have taken up and incorporated the cDNA expression plasmid survive) and propagated. Stocks of cells were frozen for later use.
In vitro effects of peptide conjugates of the invention were estimated by measuring p-ERK (using the AlphaScreen™ SureFire p-ERK assay) in HEK293 cells stably expressing the human and mouse CCK-B R (high-affinity Gastrin receptor), respectively. The Gastrin receptor efficacy assays (AlphaScreen™ SureFire p-ERK assay) were performed as follows:
The CCK-B R expressing cells in question were seeded at 20,000 cells/well in 100 μl growth medium [DMEM, 10% FCS, Penicillin (100 IU/ml), Streptomycin (100 μg/ml)] in a 96-well plate coated with poly-D-lysine. The cells were incubated in an incubator (37° C., 5% […]) for two days.
The growth medium was changed to 80 μl of serum-free medium [DMEM, Penicillin (100 IU/ml), Streptomycin (100 μg/ml)] per well, and incubation of the cells was continued for 19 hours in the incubator (37° C., 5% CO2).
• 1. After 19 hours, 20 μl of serum-free medium containing one of 5 different concentrations of peptide conjugate was added (performed in triplicate for each concentration), and the cells were incubated for 5 min. at room temperature. • 2. The stimulation medium was discarded by quickly turning the plate upside down, and 60 μl 1× lysis buffer (from the SureFire assay kit) was added per well. • 3. The plate was shaken on a plate-shaker for 5 min and then placed on ice. • 4. SureFire P-ERK assay: 4 μl of each supernatant was transferred to a 384 well proxiplate (Perkin Elmer). • 5. 4 μl of each of the two control lysates (unstimulated and stimulated) were added to the proxiplate in duplicate. • 6. […] 7 μl of the latter reaction buffer+activation buffer+beads per well were added in the proxiplate, the mix being resuspended carefully before addition to the wells. • 7. The plate was incubated for 2 hours in a dark box in a 22° C. incubator. • 8. The plate was analyzed on an Envision™ light-emission plate reader (Perkin-Elmer) using the appropriate reading program (Perkin-Elmer).

human GLP-1 R = target: T3, human GLP-1 R (Homo sapiens, UniProt P43220); experiment: Human GLP-1 receptor efficacy assay (cAMP induction, FlashPlate); conditions: read-out: hGLP-1 R EC50
T3 construct: expressed in transfected cells
Experimental: On the day of analysis, growth medium was removed and the cells were washed once with 200 μl Tyrode buffer [Tyrode's Salts (9.6 g/l), 10 mM HEPES, pH 7.4]. […] The reaction was stopped by addition of 25 μl 0.5 M HCl and incubated on ice for 60 min.

[1] = Table 1, HEK293 cells expressing human GLP-1 R, cAMP

T3 sequence (P43220 24-463): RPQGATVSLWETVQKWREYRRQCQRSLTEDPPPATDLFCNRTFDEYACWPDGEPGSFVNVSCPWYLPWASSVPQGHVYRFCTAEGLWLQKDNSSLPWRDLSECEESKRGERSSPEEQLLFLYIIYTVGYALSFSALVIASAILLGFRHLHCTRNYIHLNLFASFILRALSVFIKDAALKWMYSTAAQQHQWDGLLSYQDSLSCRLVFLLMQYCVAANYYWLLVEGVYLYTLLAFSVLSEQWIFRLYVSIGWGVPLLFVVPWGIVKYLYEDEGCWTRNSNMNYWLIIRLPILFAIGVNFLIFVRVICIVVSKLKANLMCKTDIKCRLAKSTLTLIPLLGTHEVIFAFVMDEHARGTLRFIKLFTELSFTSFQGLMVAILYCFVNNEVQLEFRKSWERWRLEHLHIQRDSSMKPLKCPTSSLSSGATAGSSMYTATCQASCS

Compound	EC50 (human CCK-B R) [nM]	EC50 (mouse CCK-B R) [nM]	EC50 (human GLP-1 R; [1]) [nM]	EC50 (human GLP-1 R; Table 3) [nM]
CC[C@H](C)[C@H](NC(=O)[C@H](Cc1ccccc1)NC(=O)[C@H](CCC(=O)O)NC(=O)[C@H](CCCCN)NC(=O)[C@H](C)NC(=O)[C@H](C)NC(=O)[C@H](CCC(N)=O)NC(=O)CNC(=O)[C@H](CCC(=O)O)NC(=O)[C@H](CC(C)C)NC(=O)[C@H](Cc1ccc(O)cc1)NC(=O)[C@H](CO)NC(=O)[C@H](CO)NC(=O)[C@@H](NC(=O)[C@H](CC(=O)O)NC(=O)[C@H](CO)NC(=O)[C@@H](NC(=O)[C@H](Cc1ccccc1)NC(=O)[C@@H](NC(=O)CNC(=O)[C@H](CCC(=O)O)NC(=O)[C@H](C)NC(=O)[C@@H](N)Cc1c[nH]cn1)[C@@H](C)O)[C@@H](C)O)C(C)C)C(=O)N[C@@H](C)C(=O)N[C@@H](Cc1c[nH]c2ccccc12)C(=O)N[C@@H](CC(C)C)C(=O)N[C@H](C(=O)N[C@@H](CCCCN)C(=O)NCC(=O)N[C@@H](CCCNC(=N)N)C(=O)NCCCCCCCC(=O)N[C@@H](CO)C(=O)N[C@@H](CCCCN)C(=O)N[C@@H](CCCCN)C(=O)N[C@@H](CCC(N)=O)C(=O)NCC(=O)N1CCC[C@H]1C(=O)N[C@@H](Cc1c[nH]c2ccccc12)C(=O)N[C@@H](CC(C)C)C(=O)N[C@@H](CCC(=O)O)C(=O)N[C@@H](CCC(=O)O)C(=O)N[C@@H](CCC(=O)O)C(=O)N[C@@H](CCC(=O)O)C(=O)N[C@@H](CCC(=O)O)C(=O)N[C@@H](C)C(=O)N[C@@H](Cc1ccc(O)cc1)C(=O)NCC(=O)N[C@@H](Cc1c[nH]c2ccccc12)C(=O)N[C@@H](CC(C)C)C(=O)N[C@@H](CC(=O)O)C(=O)N[C@@H](Cc1ccccc1)C(N)=O)C(C)C [Compound 43, GLP-1(7-36)-8Aoc-SKK-[Gln1,Leu15]Gastrin17]	51.9	82.5		
H-HAEGTFTSDVSSYLEGQAAKEFIAWLVKGRAAAQGPWLEEEEEAYGWLDF-NH2 [Compound 39, GLP-1(7-36)-AAA-[Gln1,Leu15]Gastrin17]	18.8	54.1	0.114	0.034
H-HAEGTFTSDVSSYLEGQAAKEFIAWLVKGRKQGPWLEEEEEAYGWLDF-NH2 [Compound 38, GLP-1(7-36)-K-[Gln1,Leu15]Gastrin17]	77.3	114	0.0842	0.03
H-HAEGTFTSDVSSYLEGQAAKEFIAWLVKGRQGPWLEEEEEAYGWLDF-NH2 [Compound 37, GLP-1(7-36)-[Gln1,Leu15]Gastrin17]	25.9	73.1	0.145	0.03
H-HAEGTFTSDVSSYLEGQAAKEFIAWLVKGRSKKQGPWLEEEEEAYGWLDF-NH2 [Compound 40, GLP-1(7-36)-SKK-[Gln1,Leu15]Gastrin17]	15.6	58.6	0.116	0.031

Results, then the compound that gave them:

EC50 (human CCK-B R) [nM]	EC50 (mouse CCK-B R) [nM]	EC50 (human GLP-1 R; [1]) [nM]	EC50 (human GLP-1 R; Table 3) [nM]	Compound
25.7	86.9			CC[C@H](C)[C@H](NC(=O)[C@H](Cc1ccccc1)NC(=O)[C@H](CCC(=O)O)NC(=O)[C@H](CCCCN)NC(=O)[C@H](C)NC(=O)[C@H](C)NC(=O)[C@H](CCC(N)=O)NC(=O)CNC(=O)[C@H](CCC(=O)O)NC(=O)[C@H](CC(C)C)NC(=O)[C@H](Cc1ccc(O)cc1)NC(=O)[C@H](CO)NC(=O)[C@H](CO)NC(=O)[C@@H](NC(=O)[C@H](CC(=O)O)NC(=O)[C@H](CO)NC(=O)[C@@H](NC(=O)[C@H](Cc1ccccc1)NC(=O)[C@@H](NC(=O)CNC(=O)[C@H](CCC(=O)O)NC(=O)[C@H](C)NC(=O)[C@@H](N)Cc1c[nH]cn1)[C@@H](C)O)[C@@H](C)O)C(C)C)C(=O)N[C@@H](C)C(=O)N[C@@H](Cc1c[nH]c2ccccc12)C(=O)N[C@@H](CC(C)C)C(=O)N[C@H](C(=O)N[C@@H](CCCCN)C(=O)NCC(=O)N[C@@H](CCCNC(=N)N)C(=O)NCCc1cccc2c1oc1c(CCC(=O)N[C@@H](CO)C(=O)N[C@@H](CCCCN)C(=O)N[C@@H](CCCCN)C(=O)N[C@@H](CCC(N)=O)C(=O)NCC(=O)N3CCC[C@H]3C(=O)N[C@@H](Cc3c[nH]c4ccccc34)C(=O)N[C@@H](CC(C)C)C(=O)N[C@@H](CCC(=O)O)C(=O)N[C@@H](CCC(=O)O)C(=O)N[C@@H](CCC(=O)O)C(=O)N[C@@H](CCC(=O)O)C(=O)N[C@@H](CCC(=O)O)C(=O)N[C@@H](C)C(=O)N[C@@H](Cc3ccc(O)cc3)C(=O)NCC(=O)N[C@@H](Cc3c[nH]c4ccccc34)C(=O)N[C@@H](CC(C)C)C(=O)N[C@@H](CC(=O)O)C(=O)N[C@@H](Cc3ccccc3)C(N)=O)cccc12)C(C)C [Compound 44, GLP-1(7-36)-DBF-SKK-[Gln1,Leu15]Gastrin17]
12.8	71.4			CC[C@H](C)[C@H](NC(=O)[C@H](Cc1ccccc1)NC(=O)[C@H](CCC(=O)O)NC(=O)[C@H](CCCCN)NC(=O)[C@H](C)NC(=O)[C@H](C)NC(=O)[C@H](CCC(N)=O)NC(=O)CNC(=O)[C@H](CCC(=O)O)NC(=O)[C@H](CC(C)C)NC(=O)[C@H](Cc1ccc(O)cc1)NC(=O)[C@H](CO)NC(=O)[C@H](CO)NC(=O)[C@@H](NC(=O)[C@H](CC(=O)O)NC(=O)[C@H](CO)NC(=O)[C@@H](NC(=O)[C@H](Cc1ccccc1)NC(=O)[C@@H](NC(=O)CNC(=O)[C@H](CCC(=O)O)NC(=O)[C@H](C)NC(=O)[C@@H](N)Cc1c[nH]cn1)[C@@H](C)O)[C@@H](C)O)C(C)C)C(=O)N[C@@H](C)C(=O)N[C@@H](Cc1c[nH]c2ccccc12)C(=O)N[C@@H](CC(C)C)C(=O)N[C@H](C(=O)N[C@@H](CCCCN)C(=O)NCC(=O)N[C@@H](CCCNC(=N)N)C(=O)NCCCCCCCC(=O)NCCCCCCCC(=O)N[C@@H](CCC(N)=O)C(=O)NCC(=O)N1CCC[C@H]1C(=O)N[C@@H](Cc1c[nH]c2ccccc12)C(=O)N[C@@H](CC(C)C)C(=O)N[C@@H](CCC(=O)O)C(=O)N[C@@H](CCC(=O)O)C(=O)N[C@@H](CCC(=O)O)C(=O)N[C@@H](CCC(=O)O)C(=O)N[C@@H](CCC(=O)O)C(=O)N[C@@H](C)C(=O)N[C@@H](Cc1ccc(O)cc1)C(=O)NCC(=O)N[C@@H](Cc1c[nH]c2ccccc12)C(=O)N[C@@H](CC(C)C)C(=O)N[C@@H](CC(=O)O)C(=O)N[C@@H](Cc1ccccc1)C(N)=O)C(C)C [Compound 45, GLP-1(7-36)-8Aoc-8Aoc-[Gln1,Leu15]Gastrin17]
